Consider 54 molecules from patent publication US20180305334A1, “COMPOUNDS, COMPOSITIONS AND METHODS OF USE AGAINST STRESS GRANULES” (Aquinnah Pharmaceuticals, Inc., priority 2015, published 2018).

For the experiment, the system named is TDP-43 aggregation in PC12 cells stably expressing TDP-43^Q331K::eGFP. Put plainly: In vitro efficacy assay, TDP-43 aggregation concentration-response. The experiment is classed as cell-based. The settings on record: Rattus norvegicus, PC-12, inhibition of TDP-43 aggregation; PC12 TDP-43^Q331K::eGFP, 1 hour pre-treatment, 15 μM sodium arsenite for 23 hours; 10-point dose response. The protocol:
Exemplary compounds of the invention were evaluated for efficacy in inhibiting TDP-43 inclusions using a concentration-response assay. Briefly, PC12 cells stably expressing a GFP-tagged mutant form of TDP-43 (TDP-43^Q331K::eGFP) were pre-treated for 1 hour with exemplary compounds and stressed with 15 μM sodium arsenite for 23 hours to induce TDP-43 aggregation. The inhibitory effect on TDP-43 aggregation was measured using fluorescence microscopy. The ratio of cells with TDP-43 aggregates was calculated based on the total number of cells with detectable GFP expression.

A word on the IC50: it is the point on the concentration scale where inhibition reaches its midpoint.

As for `CCN(CC1CCN(C(C)(C)c2ccc(OC)cc2)CC1)C(=O)c1cc2ccccc2[nH]1` [Compound 358], the half-maximal inhibitory concentration (IC50) was under 1.5 µM.

On to `CCN(CC1CCN(C(C)(C)c2ccccc2)CC1)C(=O)c1cc2cc(OC)ccc2[nH]1` [Compound 359], for which the IC50 was under 1.5 µM. Next, `CCN(CC1CCN(C2(Cc3cccc(OC)c3)CC2)CC1)C(=O)c1cc2ccccc2[nH]1` [Compound 360]: under 1.5 µM. With `CCN(CC1CCN(C(C)(C)Cc2cccc(OC)c2)CC1)C(=O)c1cc2ncccc2[nH]1` [Compound 363], the IC50 was under 1.5 µM.

For the molecule `CCN(CC1CCN(C(C)(C)Cc2cccc(F)c2OC)CC1)C(=O)c1cc2ccccc2[nH]1` [Compound 364], the IC50 is under 1.5 µM. For `CCN(CC1CCN(C(C)(C)CC2CCOCC2)CC1)C(=O)c1cc2ccccc2[nH]1` [Compound 365], the IC50 was 1.5 to 4 µM. For `CCN(CC1CCN(CC(C)(C)c2cc3ccccc3o2)CC1)C(=O)c1cc2ccccc2[nH]1` [Compound 405] the value was 4 to 7 µM; for `CCN(CC1CCCN(CC(C)(C)c2cccc(OC)c2)C1)C(=O)c1cc2cc(OC)ccc2[nH]1` (stereo not drawn) [Compound 406], under 1.5 µM.

Turning to `CCN(CC1CCCN(CC(C)(C)c2cccc(OC(F)(F)F)c2)C1)C(=O)c1cc2cc(OC(F)(F)F)ccc2[nH]1` (stereo not drawn) [Compound 407], the IC50 was over 10 µM.

As for `CCN(CC1CCCN(CC(C)(C)c2cccc(OC(F)F)c2)C1)C(=O)c1cc2cc(OC(F)F)ccc2[nH]1` (stereo not drawn) [Compound 408], the IC50 is under 1.5 µM. For `CCN(CC1CCCN(CC(C)(C)c2cc3ccccc3o2)C1)C(=O)c1cc2ccccc2[nH]1` (stereo not drawn) [Compound 409] the value was 1.5 to 4 µM; for `CCN(CC1CCN(CC(F)(F)c2cccc(F)c2)CC1)C(=O)c1cc2ccccc2[nH]1` [Compound 410], 1.5 to 4 µM; for `CCN(CC1CCN(CC(F)(F)c2ccccc2)CC1)C(=O)c1cc2ccccc2[nH]1` [Compound 411], under 1.5 µM.

Regarding `CCN(CC1CCN(CC(F)(F)c2cccc(OC)c2)CC1)C(=O)c1cc2ccccc2[nH]1` [Compound 412], the IC50 was in the range of 1.5 to 4 µM. Next, `CCN(CC1CCCNC1)C(=O)c1cc2ccccc2[nH]1` (stereo not drawn) [Compound 413]: over 10 µM; `CCN(CC1CCCN(Cc2cccc(OC)c2)C1)C(=O)c1cc2ccccc2[nH]1` (stereo not drawn) [compound 122]: under 1.5 µM; `CCN(CC1CCN(CCc2cccc(OC)c2)CC1)C(=O)c1cc2ccccc2[nH]1` [compound 253]: 1.5 to 4 µM. Consider `CN(CC1CCNCC1)C(=O)c1cc2ccccc2[nH]1` [compound 254], for which the IC50 was over 10 µM. For `CN(CC1CCN(Cc2cccc(F)c2)CC1)C(=O)c1cc2ccccc2[nH]1` [compound 255], the IC50 is over 10 µM. For `CN(CC1CCN(Cc2cccc(Cl)c2)CC1)C(=O)c1cc2ccccc2[nH]1` [compound 256] the value was over 10 µM; for `COc1cccc(CN2CCC(CN(C)C(=O)c3cc4ccccc4[nH]3)CC2)c1` [compound 257], 4 to 7 µM; for `CN(CC1CCN(Cc2ccccc2F)CC1)C(=O)c1cc2ccccc2[nH]1` [compound 258], over 10 µM. For `CN(CC1CCN(Cc2ccccc2Cl)CC1)C(=O)c1cc2ccccc2[nH]1` [compound 259] the value was over 10 µM; for `COc1ccccc1CN1CCC(CN(C)C(=O)c2cc3ccccc3[nH]2)CC1` [compound 260], 4 to 7 µM.

Take `COc1ccc(CN2CCC(CN(C)C(=O)c3cc4ccccc4[nH]3)CC2)cc1` [compound 261]: the half-maximal inhibitory concentration (IC50) was 1.5 to 4 µM. Regarding `CN(CC1CCN(Cc2ccc(Cl)cc2)CC1)C(=O)c1cc2ccccc2[nH]1` [compound 262], the 50% inhibitory concentration (IC50) was over 10 µM. Next, `CN(CC1CCN(Cc2ccccc2)CC1)C(=O)c1cc2ccccc2[nH]1` [compound 263]: over 10 µM; `COc1ccc(CN2CCC(CN(C(=O)c3cc4ccccc4[nH]3)C(C)C)CC2)cc1` [compound 265]: under 1.5 µM; `CCN(CC1CCN(Cc2cccc(Cl)c2)CC1)C(=O)c1cc2ccccc2[nH]1` [compound 266]: 4 to 7 µM. Next, `CCN(CC1CCN(Cc2cccc(OC)c2)CC1)C(=O)c1cc2ccccc2[nH]1` [compound 267]: 1.5 to 4 µM; `CCN(CC1CCN(Cc2ccccc2F)CC1)C(=O)c1cc2ccccc2[nH]1` [compound 268]: 1.5 to 4 µM; `CN(CC1CCN(Cc2ccc(F)cc2)CC1)C(=O)c1cc2ccccc2[nH]1` [compound 269]: over 10 µM. Next, `O=C(NCC1CCN(Cc2cccc(F)c2)CC1)c1cc2ccccc2[nH]1` [compound 270]: over 10 µM. On to `O=C(NCC1CCN(Cc2cccc(Cl)c2)CC1)c1cc2ccccc2[nH]1` [compound 271], for which the IC50 is under 1.5 µM. For `O=C(NCC1CCN(Cc2ccccc2F)CC1)c1cc2ccccc2[nH]1` [compound 272] the value was over 10 µM; for `COc1ccccc1CN1CCC(CNC(=O)c2cc3ccccc3[nH]2)CC1` [compound 273], 1.5 to 4 µM.

`COc1ccc(CN2CCC(CNC(=O)c3cc4ccccc4[nH]3)CC2)cc1` [compound 274]: the IC50 is over 10 µM. Next, `O=C(NCC1CCN(Cc2ccc(Cl)cc2)CC1)c1cc2ccccc2[nH]1` [compound 275]: over 10 µM. For `CC(C)N(CC1CCNCC1)C(=O)c1cc2ccccc2[nH]1` [compound 276] the value was over 10 µM; for `CC(C)N(CC1CCN(Cc2cccc(F)c2)CC1)C(=O)c1cc2ccccc2[nH]1` [compound 277], over 10 µM; for `CC(C)N(CC1CCN(Cc2cccc(Cl)c2)CC1)C(=O)c1cc2ccccc2[nH]1` [compound 278], 4 to 7 µM.

As to `COc1cccc(CN2CCC(CN(C(=O)c3cc4ccccc4[nH]3)C(C)C)CC2)c1` [compound 279], the concentration for half-maximal inhibition (IC50) was over 10 µM.

Regarding `CC(C)N(CC1CCN(Cc2ccccc2F)CC1)C(=O)c1cc2ccccc2[nH]1` [compound 280], the IC50 was over 10 µM. Next, `CC(C)N(CC1CCN(Cc2ccccc2Cl)CC1)C(=O)c1cc2ccccc2[nH]1` [compound 281]: over 10 µM; `COc1ccccc1CN1CCC(CN(C(=O)c2cc3ccccc3[nH]2)C(C)C)CC1` [compound 282]: over 10 µM. For `CC(C)N(CC1CCN(Cc2ccc(Cl)cc2)CC1)C(=O)c1cc2ccccc2[nH]1` [compound 283] the value was over 10 µM; for `CC(C)N(CC1CCN(Cc2ccc(F)cc2)CC1)C(=O)c1cc2ccccc2[nH]1` [compound 284], over 10 µM; for `CC(C)N(CC1CCN(Cc2ccccc2)CC1)C(=O)c1cc2ccccc2[nH]1` [compound 285], 1.5 to 4 µM.

As to `CCN(CC1CCN(Cc2ccccc2Cl)CC1)C(=O)c1cc2ccccc2[nH]1` [compound 286], the IC50 was 1.5 to 4 µM. Regarding `CCN(CC1CCN(Cc2ccccc2OC)CC1)C(=O)c1cc2ccccc2[nH]1` [compound 287], the IC50 is 4 to 7 µM. Next, `CCN(CC1CCN(Cc2ccc(OC)cc2)CC1)C(=O)c1cc2ccccc2[nH]1` [compound 288]: under 1.5 µM. On to `CCN(CC1CCN(Cc2ccc(Cl)cc2)CC1)C(=O)c1cc2ccccc2[nH]1` [compound 289], for which the IC50 is over 10 µM.

Turning to `CCN(CC1CCN(Cc2ccc(F)cc2)CC1)C(=O)c1cc2ccccc2[nH]1` [compound 290], the IC50 was over 10 µM.

Turning to `CCN(CC1CCN(Cc2ccccc2)CC1)C(=O)c1cc2ccccc2[nH]1` [compound 291], the IC50 was in the range of 1.5 to 4 µM.
